Experimental data as given in patent publication US11807835B2, “Detergent compositions containing a stabilized enzyme by phosphonates” (ECOLAB USA INC., priority 2016, dated 2023).

Assays:
[1] = test system: lipase; assay: Lipase activity retention in detergent use solution (4000 ppm, 5 GPG water; p-nitrophenyl valerate, TRIS buffer pH 8.0); format: biochemical; settings: for Relative Lipase Enzyme Activity in a Use Solution: Table 6E, room temperature; for Relative Lipase Enzyme Activity in a Use Solution of the All Ash Detergent Composition: Table 6F, all ash formula, 120º F.; for Relative Lipase Enzyme Activity: base formula
Experimental: The enzyme […] collected up to 4 hours, after a use solution was generated from the detergent composition. During the tests, the samples at different time points were collected and immediately frozen in an acetone/dry ice bath and stored in −80° C. before the activity of the enzyme was evaluated. For the use of such an assay, t=0 min was the reference point for 100% enzyme activity.
(§1) Assays of enzyme activity in formulations (% retention) were conducted to simulate a presoak condition in a beaker using the chemistry, temperature, and pH conditions relevant to manual warewash or presoak applications. Enzyme activity is an indicator of the stability of the enzyme in the detergent, specifically in an aqueous use solution within a sump (which is under conditions of high pH, temperature and dilution).
Enzyme activity under presoak or manual warewash conditions was traced quantitatively using a standard protease assay. Samples were prepared under bench top conditions, whereby the use solution from a detergent composition or detergent was obtained and maintained at a presoak or manual warewash temperature in a stirring water bath. After the time course for assessing enzyme stability is initiated, aliquots were taken at various time points and flash-frozen. A time=0 sample was prepared for each series by dissolving the detergent formulation at room temperature, mixing thoroughly, and flash freezing. Samples were thawed and diluted as necessary in an assay buffer usually for use in the protease assay. A glycine buffer at pH 9.0 is used here. The assay monitored the direct reaction of the protease on a small, commercially available peptidyl substrate, with liberation of the product providing correlation to the active enzyme content. The product was detected using a plate reader with an appreciable dynamic range (upper absorbance limit of the instrument >3.5). Enzyme activity levels were assessed relative to a calibration curve with average values for replicate tests used to map protease stability under presoak or manual warewash use conditions. Enzyme retention at each time point was calculated as the % enzyme activity relative to the time=0 sample.
The analysis by lipase and amylase assay was conducted similarly, except with a different substrate and buffers. For lipase activity, the substrate is p-nitrophenyl valerate, and for amylase, the substrate is an ethylidene substrate (EPS). The buffer used in lipase assay is TRIS (Tris(hydroxymethyl)aminomethane) buffer at pH 8.0, and in amylase assay HEPES (4-(2-hydroxyethyl)-1-piperazineethanesulfonic acid) buffer at pH 8.0.

[2] = test system: enzyme (protease, amylase, lipase); assay: Overall effects of phosphonates on enzyme activity (Table 3); format: biochemical; settings: overall effect of the phosphonate on enzyme activity in the detergent use solution
Experimental: The enzyme activities in the detergents with different phosphonate levels were tested at 4000 ppm in 5 grains per gallon (GPG) water at 120° F. with various time points collected up to 4 hours, after a use solution was generated from the detergent composition. During the tests, the samples at different time points were collected and immediately frozen in an acetone/dry ice bath and stored in −80° C. before the activity of the enzyme was evaluated. For the use of such an assay, t=0 min was the reference point for 100% enzyme activity.
as §1
The relative enzyme activities in a use solution of the tested detergent compositions containing a different phosphonate at different concentrations over a period time are listed in Table 4A-Table 4E, Table 5A-Table 5E, and Table 6A-Table 6F.

[3] = phosphonate 0.3 wt-%, time 120 min
[4] = phosphonate 0.3 wt-%, time 150 min
[5] = phosphonate 0.3 wt-%, time 180 min
[6] = phosphonate 0.3 wt-%, time 210 min
[7] = phosphonate 0.3 wt-%, time 240 min

In the case of `CC(O)(P(=O)(O)O)P(=O)(O)O` [HEDP, 1-hydroxy ethylidene-1,1-diphosphonic acid], the “Relative Lipase Enzyme Activity in a Use Solution” value [1, 3] is reported as 100.99%, the “Relative Lipase Enzyme Activity in a Use Solution” value [1, 4] is reported as 100.18% and the “Relative Lipase Enzyme Activity in a Use Solution” value [1, 5] is reported as 100.45%. The “Relative Lipase Enzyme Activity in a Use Solution” value [1, 6] was 98.87%, the “Relative Lipase Enzyme Activity in a Use Solution” value [1, 7] was 99.95% and the “Relative Lipase Enzyme Activity in a Use Solution of the All Ash Detergent Composition” value ([1]; phosphonate 0.3 wt-%, time 0 min) was 100.00%. For the same compound, the “Relative Lipase Enzyme Activity in a Use Solution of the All Ash Detergent Composition” value ([1]; phosphonate 0.3 wt-%, time 5 min) was 39.01%, the “Relative Lipase Enzyme Activity in a Use Solution of the All Ash Detergent Composition” value ([1]; phosphonate 0.3 wt-%, time 10 min) was 21.35% and the “Relative Lipase Enzyme Activity in a Use Solution of the All Ash Detergent Composition” value ([1]; phosphonate 0.3 wt-%, time 20 min) was 7.45%. For the same compound, the “Relative Lipase Enzyme Activity in a Use Solution of the All Ash Detergent Composition” value ([1]; phosphonate 0.3 wt-%, time 40 min) was 0.88%, the “Relative Lipase Enzyme Activity in a Use Solution of the All Ash Detergent Composition” value ([1]; phosphonate 0.3 wt-%, time 60 min) was −0.91% and the “Relative Lipase Enzyme Activity in a Use Solution of the All Ash Detergent Composition” value ([1]; phosphonate 0.3 wt-%, time 90 min) was −1.68%. The “Relative Lipase Enzyme Activity in a Use Solution of the All Ash Detergent Composition” value [1, 3] was −1.38%, the “Relative Lipase Enzyme Activity in a Use Solution of the All Ash Detergent Composition” value [1, 4] was −1.94% and the “Relative Lipase Enzyme Activity in a Use Solution of the All Ash Detergent Composition” value [1, 5] was −4.15%. The “Relative Lipase Enzyme Activity in a Use Solution of the All Ash Detergent Composition” value [1, 6] was −4.41%, the “Relative Lipase Enzyme Activity in a Use Solution of the All Ash Detergent Composition” value [1, 7] was −3.60% and the “Relative Lipase Enzyme Activity” value ([1]; phosphonate 0.3 wt-%, use solution at 120° F., time 0 min) was 100.00%. The “Relative Lipase Enzyme Activity” value ([1]; phosphonate 0.3 wt-%, use solution at 120° F., time 5 min) was 47.15%, the “Relative Lipase Enzyme Activity” value ([1]; phosphonate 0.3 wt-%, use solution at 120° F., time 10 min) was 44.35% and the “Relative Lipase Enzyme Activity” value ([1]; phosphonate 0.3 wt-%, use solution at 120° F., time 20 min) was 34.94%. The “Relative Lipase Enzyme Activity” value ([1]; phosphonate 0.3 wt-%, use solution at 120° F., time 40 min) was 23.40%, the “Relative Lipase Enzyme Activity” value ([1]; phosphonate 0.3 wt-%, use solution at 120° F., time 60 min) was 17.75% and the “Relative Lipase Enzyme Activity” value ([1]; phosphonate 0.3 wt-%, use solution at 120° F., time 90 min) was 11.06%. For the same compound, the “Relative Lipase Enzyme Activity” value ([1]; phosphonate 0.3 wt-%, use solution at 120° F., time 120 min) was 6.92%, the “Relative Lipase Enzyme Activity” value ([1]; phosphonate 0.3 wt-%, use solution at 120° F., time 150 min) was 5.38% and the “Relative Lipase Enzyme Activity” value ([1]; phosphonate 0.3 wt-%, use solution at 120° F., time 180 min) was 2.90%. The “Relative Lipase Enzyme Activity” value ([1]; phosphonate 0.3 wt-%, use solution at 120° F., time 210 min) was 2.62%, the “Relative Lipase Enzyme Activity” value ([1]; phosphonate 0.3 wt-%, use solution at 120° F., time 240 min) was 2.32% and the “Relative Lipase Enzyme Activity” value ([1]; phosphonate 0.6 wt-%, use solution at 120º F., time 0 min) was 100.00%. For the same compound, the “Relative Lipase Enzyme Activity” value ([1]; phosphonate 0.6 wt-%, use solution at 120º F., time 5 min) was 62.99%, the “Relative Lipase Enzyme Activity” value ([1]; phosphonate 0.6 wt-%, use solution at 120º F., time 10 min) was 59.92% and the “Relative Lipase Enzyme Activity” value ([1]; phosphonate 0.6 wt-%, use solution at 120º F., time 20 min) was 48.34%. The “Relative Lipase Enzyme Activity” value ([1]; phosphonate 0.6 wt-%, use solution at 120º F., time 40 min) was 33.30%, the “Relative Lipase Enzyme Activity” value ([1]; phosphonate 0.6 wt-%, use solution at 120º F., time 60 min) was 23.22% and the “Relative Lipase Enzyme Activity” value ([1]; phosphonate 0.6 wt-%, use solution at 120º F., time 90 min) was 17.91%. The “Relative Lipase Enzyme Activity” value ([1]; phosphonate 0.6 wt-%, use solution at 120º F., time 120 min) was 14.72%, the “Relative Lipase Enzyme Activity” value ([1]; phosphonate 0.6 wt-%, use solution at 120º F., time 150 min) was 12.63% and the “Relative Lipase Enzyme Activity” value ([1]; phosphonate 0.6 wt-%, use solution at 120º F., time 180 min) was 7.01%. The “Relative Lipase Enzyme Activity” value ([1]; phosphonate 0.6 wt-%, use solution at 120º F., time 210 min) was 8.08%, the “Relative Lipase Enzyme Activity” value ([1]; phosphonate 0.6 wt-%, use solution at 120º F., time 240 min) was 5.20% and the “Relative Lipase Enzyme Activity” value ([1]; phosphonate at 0.1% elemental phosphorus, at 120º F. or at room temperature (as titled), time 0 min) was 100.00%. For the same compound, the “Relative Lipase Enzyme Activity” value ([1]; phosphonate at 0.1% elemental phosphorus, at 120º F. or at room temperature (as titled), time 5 min) was 79.12%, the “Relative Lipase Enzyme Activity” value ([1]; phosphonate at 0.1% elemental phosphorus, at 120º F. or at room temperature (as titled), time 10 min) was 67.70% and the “Relative Lipase Enzyme Activity” value ([1]; phosphonate at 0.1% elemental phosphorus, at 120º F. or at room temperature (as titled), time 20 min) was 51.16%. For the same compound, the “Relative Lipase Enzyme Activity” value ([1]; phosphonate at 0.1% elemental phosphorus, at 120º F. or at room temperature (as titled), time 40 min) was 25.69%, the “Relative Lipase Enzyme Activity” value ([1]; phosphonate at 0.1% elemental phosphorus, at 120º F. or at room temperature (as titled), time 60 min) was 19.99% and the “Relative Lipase Enzyme Activity” value ([1]; phosphonate at 0.1% elemental phosphorus, at 120º F. or at room temperature (as titled), time 90 min) was 16.10%. The “Relative Lipase Enzyme Activity” value ([1]; phosphonate at 0.1% elemental phosphorus, at 120º F. or at room temperature (as titled), time 120 min) was 13.04%, the “Relative Lipase Enzyme Activity” value ([1]; phosphonate at 0.1% elemental phosphorus, at 120º F. or at room temperature (as titled), time 150 min) was 11.14% and the “Relative Lipase Enzyme Activity” value ([1]; phosphonate at 0.1% elemental phosphorus, at 120º F. or at room temperature (as titled), time 180 min) was 9.12%. The “Relative Lipase Enzyme Activity” value ([1]; phosphonate at 0.1% elemental phosphorus, at 120º F. or at room temperature (as titled), time 210 min) was 7.99%, the “Relative Lipase Enzyme Activity” value ([1]; phosphonate at 0.1% elemental phosphorus, at 120º F. or at room temperature (as titled), time 240 min) was 7.70% and the “Stability (effects on enzyme activity)” value [2] was “No”.
